Measurements: EPA's ToxValDB 9.5 (doi:10.2903/j.efsa.2009.178r)

Key:
Tagia sp. = conditions: acute; mortality
Colinus virginianus = conditions: acute; oral; diet; mortality
Apis mellifera = conditions: acute, mortality
Canidae = conditions: chronic; duration: 1 years; oral; Dog Other; histopathology: nonneoplastic
Procambarus sp. = conditions: acute; duration: 96 hours; mortality
Daphnia magna = conditions: chronic/long-term; duration: 21 days; mobility
Aphidius rhopalosiphi = experiment: LR50; higher = less toxic; conditions: not reported; mortality
Typhlodromus pyri = experiment: LR50; higher = less toxic; conditions: not reported; mortality

SMILES: COC(=O)c1ccccc1CS(=O)(=O)NC(=O)Nc1nc(OC)cc(OC)n1 [Bensulfuron-methyl]
- LC50 (Tagia sp.): > 1000 mg/kg
- LC50 (Colinus virginianus): > 1680 mg/kg-day
- LD50 (Apis mellifera; dermal): > 100 µg/piece
- LD50 (Apis mellifera; oral, unspecified): > 51.4 µg/piece
- LC50 (Oncorhynchus mykiss; acute, duration: 96 hours, mortality): > 66 mg/L
- NOEC (Oncorhynchus mykiss; chronic/long-term, duration: 90 days, other): 1.5 mg/L
- NOAEL (Canidae): 19.9 mg/kg-day
- LD50 (Rattus norvegicus; acute, oral, mortality): ≥ 5000 mg/kg
- NOEL (Rattus norvegicus; reproduction developmental, reproduction): 20.9 mg/kg-day
- LD50 (Anas platyrhynchos; acute, oral, unspecified, M/F, mortality): ≥ 2510 mg/kg
- NOEC (Anas platyrhynchos; reproductive): 83 mg/kg-day
- LC50 (Anas platyrhynchos; short-term, oral, feed, mortality): > 1690 mg/kg-day
- LC50 (Procambarus sp.): > 71 mg/L
- NOEC (Daphnia magna): 12 mg/L
- LR50 (Aphidius rhopalosiphi): > 600 g/ha
- LR50 (Typhlodromus pyri): > 600 g/ha
